# Measured values taken from patent US10544106B2, “Certain chemical entities, compositions, and methods” (NeuPharma, Inc., priority 2016, dated 2020).
# Columns and labels:
# EGFR del746_750 = EGFR del746_750 (Homo sapiens (Human), UniProt P00533, DEL746-750); test: SelectScreen Lantha method (Eu-anti-GST antibody/tracer) for EGFR del746_750; type: binding; settings: compound at 100 nM; read-out: % Inhibition against EGFR del745_750
# Description: SelecteScreen's Lantha® method from Life Technologies was used to measure compound's activities in inhibition of EGFR del746_750.
# Test Compounds are screened in 1% DMSO (final) in the well. For 10 point titrations, 3-fold serial dilutions are conducted from the starting concentration. • Components for EGFR del745_750: • Kinase Buffer A: 50 mM HEPES pH 7.5, 0.01% BRIJ-35, 10 mM MgCl2, 1 mM EGTA • Kinase/Antibody Mixtures for EGFR del745_ 750: EGFR del745_ 750 10 nM, Antibody: Eu-anti-GST 2 nM, Tracer 199 10 nM, Inhibitor: SB202190 88.2 nM, All Kinase/Antibody Mixtures are diluted to a 2× working concentration in the appropriate Kinase Buffer • Tracer: The 4× AlexaFluor® labeled Tracer is prepared in Kinase Buffer.
# To start the measurement, the following components are added to individual wells of bar-coded, low volume, white 384-well plate (Greiner Cat. #784207): • 1. 160 nL—100× Test Compound in 100% DMSO. • 2. 3.84 μL—Kinase Buffer: • 3. 8.0 μL—2× Kinase/Antibody Mixture • 4. 4.0 μL—4× Tracer The mixture above is then shaken for 30-second following by 60-minute incubation at room temperature. Finally the plate is read on fluorescence plate reader.
# (§1) The Z′-LYTE assay was carried out with ATP concentration at Km. The scale utilized in Tables 2-6 is as follows: ++ more than 50% inhibition and + less than 50% inhibition.
# EGFR (ErbB1) L858R = EGFR (ErbB1) L858R (Homo sapiens (Human), UniProt P00533, L858R); test: Z'-LYTE kinase inhibition assay against EGFR L858R; type: biochemical; settings: compound at 100 nM; ATP concentration at Km
# Description: (§2) Inhibitory activities of compounds against BTK, EGFR T790M, EGFR L858R, and EGFR L858R/T790M were measured using Z′-LYTE® Method from Life Technologies as briefly described in the following.
# (§3) Test Compounds are screened in 1% DMSO (final) in the well. For 10 point titrations, 3-fold serial dilutions are conducted from the starting concentration. All ATP Solutions are diluted to a 4× working concentration in Kinase Buffer (50 mM HEPES pH 7.5, 0.01% BRIJ-35, 10 mM MgCl2, 1 mM EGTA). Peptide/Kinase Mixtures are diluted to a 2× working concentration in the appropriate Kinase Buffers as described below. • (i) Peptide/Kinase Mixtures for measurement of EGFR (ErbB1) L858R: • The 2×EGFR (ErbB1) L858R/Tyr 04 mixture is prepared in 50 mM HEPES pH 7.5, 0.01% BRIJ-35, 10 mM MgCl2, 4 mM MnCl2. 1 mM EGTA, 2 mM DTT. The final 10 μL Kinase Reaction consists of 0.2-1.68 ng EGFR (ErbB1) L858R and 2 μM Tyr 04 in 50 mM HEPES pH 7.5, 0.01% BRIJ-35, 10 mM MgCl2, 2 mM MnCl2, 1 mM EGTA, 1 mM DTT. After the 1 hour Kinase Reaction incubation, 5 μL of a 1:64 dilution of Development Reagent B is added. • (ii) Peptide/Kinase Mixtures for measurement of EGFR (ErbB1) T790M: The 2×EGFR (ErbB1) T790M/Tyr 04 mixture is prepared in 50 mM HEPES pH 6.5, 0.01% BRIJ-35, 10 mM MgCl2, 1 mM EGTA, 0.02% NaN3. The final 10 μL Kinase Reaction consists of 3.9-30.2 ng EGFR (ErbB1) T790M and 2 μM Tyr 04 in 50 mM HEPES pH 7.0, 0.01% BRIJ-35, 10 mM MgCl2, 1 mM EGTA, 0.01% NaN3. After the 1 hour Kinase Reaction incubation, 5 μL of a 1:64 dilution of Development Reagent B is added. • (iii) Peptide/Kinase Mixtures for measurement of EGFR (ErbB1) L858R/T790M: The 2×EGFR (ErbB1) T790M L858R/Tyr 04 mixture is prepared in 50 mM HEPES pH 6.5, 0.01% BRIJ-35, 10 mM MgCl2, 1 mM EGTA, 0.02% NaN3. The final 10 μL Kinase Reaction consists of 0.38-4.22 ng EGFR (ErbB1) T790M L858R and 2 μM Tyr 04 in 50 mM HEPES pH 7.0, 0.01% BRIJ-35, 10 mM MgCl2, 1 mM EGTA, 0.01% NaN3. After the 1 hour Kinase Reaction incubation, 5 μL of a 1:64 dilution of Development Reagent B is added. • (iv) Peptide/Kinase Mixtures for measurement of BTK: The 2×BTK/Tyr 01 mixture is prepared in 50 mM HEPES pH 7.5, 0.010/BRIJ-35, 10 mM MgCl2, 1 mM EGTA. The final 10 μL Kinase Reaction consists of 1.04-10.4 ng BTK and 2 μM Tyr 01 in 50 mM HEPES pH 7.5, 0.01% BRIJ-35, 10 mM MgCl2, 1 mM EGTA. After the 1 hour Kinase Reaction incubation, 5 μL of a 1:256 dilution of Development Reagent B is added.
# (§4) Reaction starts by 30-second shaking of mixture consisting of 2.5 μL 4× test compound, 5 μL 2× kinase reaction mixture and 2.5 μL 4×ATP Solution on Bar-coded Corning, low volume NBS, black 384-well plate (Corning Cat. #3676). Then the mixture is incubated for 60-minute at room temperature for the kinase reaction, followed by addition of 5 μL of a 1:1024 dilution of development reagent A and 30-second plate shake. The mixture is then incubated for another 60-minute at room temperature for development reaction. Finally fluorescence is read by plate reader.
# as §1
# EGFR (ErbB1) T790M = EGFR (ErbB1) T790M (Homo sapiens (Human), UniProt P00533, T790M); test: Z'-LYTE kinase inhibition assay against EGFR T790M; type: biochemical; settings: compound at 100 nM; ATP concentration at Km
# Description: as §2, §3, §4, §1
# EGFR (ErbB1) L858R/T790M = EGFR (ErbB1) L858R/T790M (Homo sapiens (Human), UniProt P00533, L858R/T790M); test: Z'-LYTE kinase inhibition assay against EGFR L858R/T790M; type: biochemical; settings: compound at 100 nM; ATP concentration at Km
# Description: as §2, §3, §4, §1
# BTK = BTK (Homo sapiens (Human), UniProt Q06187); test: Z'-LYTE kinase inhibition assay against BTK; type: biochemical; settings: for inhibition at 0.1 µM: compound at 100 nM, ATP concentration at Km; for IC50: series of concentrations, GraphPad Prism 5
# Outline: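 Z′-LYTE FRET readout: 1.04-10.4 ng BTK with 2 μM Tyr 01 peptide, ATP at Km, in 50 mM HEPES pH 7.5, 10 mM MgCl2, 1 mM EGTA, 0.01% BRIJ-35, 1% DMSO. 60 min kinase reaction at room temperature, then 60 min development; IC50 from 10-point, 3-fold titrations.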
# OCI-Ly10 cells = test: OCI-Ly10 cell proliferation assay (Alamar Blue, 72 hours); type: cell-based; settings: Homo sapiens
# Description: OCI-Ly10 cells were cultured in Iscove's DMEM supplemented with 20% fetal bovine serum and 1× penicillin/streptomycin/glutamine. The cells were maintained in T175 flasks under 5% CO2 in a 37 ° C. humidified incubator for 5 days prior to plating and assay.
# Cells were pooled by centrifugation (200 ref, 8 minutes) and resuspended in fresh medium to a concentration of 2.00E+05 cells/ml. 200 µl of the cell suspension was added to each well (40,000 cells/well) of a black-walled 96 well plate to which 1 μl of compound (n=3 per concentration) in 100% DMSO (0.5% final concentration) was added per well. Vehicle and cell free wells were also included in the assay. The dosed cells were cultured under normal conditions for 72 hours.
# Cell proliferation is measured using the dye Alamar Blue (resazurin). Resazurin is reduced to resorufin by cellular enzymes and is fluorescent (544 nm excitation, 612 nm emission). Fluorescence intensity is proportional to cell number. Resazurin was prepared in PBS to a stock concentration of 440 μM. 40 μl of the 440 μM resazurin stock solution was added 3 hours prior to the 72 hour termination of the assay. The plate was returned to normal culture conditions and fluorescence measurements were collected using a Cytation3 multimode plate reader (Biotek) at 72 hours.
# The scale utilized in Table 8 is as follows: ++ less than 50 nM and + greater than 50 nM.
# EGFR (ErbB1) L858R/T790M, sequence (P00533 25-1210 T790M/L858R): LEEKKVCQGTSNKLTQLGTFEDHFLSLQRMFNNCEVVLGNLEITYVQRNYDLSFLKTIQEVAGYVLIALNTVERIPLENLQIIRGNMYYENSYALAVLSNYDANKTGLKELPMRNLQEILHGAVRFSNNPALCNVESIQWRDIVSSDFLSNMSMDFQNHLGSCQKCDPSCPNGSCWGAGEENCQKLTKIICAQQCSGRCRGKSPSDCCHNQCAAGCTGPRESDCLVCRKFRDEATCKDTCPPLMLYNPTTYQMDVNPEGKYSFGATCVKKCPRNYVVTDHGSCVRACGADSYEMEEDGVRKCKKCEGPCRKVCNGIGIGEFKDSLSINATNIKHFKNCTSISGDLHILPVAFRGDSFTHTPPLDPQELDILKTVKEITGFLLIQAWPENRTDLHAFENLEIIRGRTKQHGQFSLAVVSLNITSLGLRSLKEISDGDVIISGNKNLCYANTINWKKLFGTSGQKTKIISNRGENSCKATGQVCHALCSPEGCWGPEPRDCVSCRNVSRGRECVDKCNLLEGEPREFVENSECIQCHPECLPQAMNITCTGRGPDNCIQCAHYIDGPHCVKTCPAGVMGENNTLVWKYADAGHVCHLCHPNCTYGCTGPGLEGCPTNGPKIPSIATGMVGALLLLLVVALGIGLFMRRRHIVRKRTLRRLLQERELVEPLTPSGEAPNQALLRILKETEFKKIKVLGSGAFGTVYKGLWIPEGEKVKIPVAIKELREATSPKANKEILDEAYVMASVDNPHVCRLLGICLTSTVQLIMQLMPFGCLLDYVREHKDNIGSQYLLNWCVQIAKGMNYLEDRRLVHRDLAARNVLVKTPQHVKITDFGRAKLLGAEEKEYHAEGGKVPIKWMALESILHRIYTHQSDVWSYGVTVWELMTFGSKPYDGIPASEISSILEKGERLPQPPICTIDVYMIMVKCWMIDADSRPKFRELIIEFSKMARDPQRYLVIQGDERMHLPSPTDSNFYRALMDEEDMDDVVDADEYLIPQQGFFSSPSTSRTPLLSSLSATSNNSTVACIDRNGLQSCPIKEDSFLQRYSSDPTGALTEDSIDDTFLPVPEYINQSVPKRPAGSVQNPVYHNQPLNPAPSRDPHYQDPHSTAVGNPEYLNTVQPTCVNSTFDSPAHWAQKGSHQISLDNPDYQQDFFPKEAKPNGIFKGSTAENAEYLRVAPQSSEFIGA
# EGFR (ErbB1) L858R, sequence (P00533 25-1210 L858R): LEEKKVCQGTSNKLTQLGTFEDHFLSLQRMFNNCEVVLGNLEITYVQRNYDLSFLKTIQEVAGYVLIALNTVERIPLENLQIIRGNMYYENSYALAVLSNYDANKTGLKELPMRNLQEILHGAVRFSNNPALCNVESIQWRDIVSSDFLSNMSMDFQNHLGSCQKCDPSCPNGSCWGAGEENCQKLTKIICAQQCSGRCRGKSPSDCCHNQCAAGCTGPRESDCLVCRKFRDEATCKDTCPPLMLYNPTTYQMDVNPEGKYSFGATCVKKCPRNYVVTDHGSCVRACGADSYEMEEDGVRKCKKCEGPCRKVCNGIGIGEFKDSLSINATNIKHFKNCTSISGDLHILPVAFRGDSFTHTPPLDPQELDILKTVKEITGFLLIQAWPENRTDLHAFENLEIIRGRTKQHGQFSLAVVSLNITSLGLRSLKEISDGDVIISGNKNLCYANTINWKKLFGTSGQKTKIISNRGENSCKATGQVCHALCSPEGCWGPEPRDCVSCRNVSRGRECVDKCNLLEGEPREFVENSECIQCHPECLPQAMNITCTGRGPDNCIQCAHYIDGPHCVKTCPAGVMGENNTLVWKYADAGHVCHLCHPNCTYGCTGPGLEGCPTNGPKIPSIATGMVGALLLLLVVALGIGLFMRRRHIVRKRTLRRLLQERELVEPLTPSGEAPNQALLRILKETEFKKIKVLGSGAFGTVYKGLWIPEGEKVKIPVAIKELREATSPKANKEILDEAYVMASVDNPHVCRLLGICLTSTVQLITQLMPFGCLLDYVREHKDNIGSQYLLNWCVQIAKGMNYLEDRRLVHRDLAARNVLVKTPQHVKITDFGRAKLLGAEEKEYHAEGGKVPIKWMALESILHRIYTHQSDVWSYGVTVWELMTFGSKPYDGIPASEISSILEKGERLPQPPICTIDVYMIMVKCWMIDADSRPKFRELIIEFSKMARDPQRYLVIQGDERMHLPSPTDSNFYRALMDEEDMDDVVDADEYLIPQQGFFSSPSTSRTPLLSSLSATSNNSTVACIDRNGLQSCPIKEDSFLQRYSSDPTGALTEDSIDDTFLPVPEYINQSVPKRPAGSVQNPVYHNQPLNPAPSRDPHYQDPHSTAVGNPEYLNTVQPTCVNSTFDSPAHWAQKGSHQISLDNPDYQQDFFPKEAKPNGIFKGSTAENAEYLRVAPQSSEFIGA
# EGFR del746_750, sequence (P00533 other isoform, or with tags, fused parts or gaps del E746-A750): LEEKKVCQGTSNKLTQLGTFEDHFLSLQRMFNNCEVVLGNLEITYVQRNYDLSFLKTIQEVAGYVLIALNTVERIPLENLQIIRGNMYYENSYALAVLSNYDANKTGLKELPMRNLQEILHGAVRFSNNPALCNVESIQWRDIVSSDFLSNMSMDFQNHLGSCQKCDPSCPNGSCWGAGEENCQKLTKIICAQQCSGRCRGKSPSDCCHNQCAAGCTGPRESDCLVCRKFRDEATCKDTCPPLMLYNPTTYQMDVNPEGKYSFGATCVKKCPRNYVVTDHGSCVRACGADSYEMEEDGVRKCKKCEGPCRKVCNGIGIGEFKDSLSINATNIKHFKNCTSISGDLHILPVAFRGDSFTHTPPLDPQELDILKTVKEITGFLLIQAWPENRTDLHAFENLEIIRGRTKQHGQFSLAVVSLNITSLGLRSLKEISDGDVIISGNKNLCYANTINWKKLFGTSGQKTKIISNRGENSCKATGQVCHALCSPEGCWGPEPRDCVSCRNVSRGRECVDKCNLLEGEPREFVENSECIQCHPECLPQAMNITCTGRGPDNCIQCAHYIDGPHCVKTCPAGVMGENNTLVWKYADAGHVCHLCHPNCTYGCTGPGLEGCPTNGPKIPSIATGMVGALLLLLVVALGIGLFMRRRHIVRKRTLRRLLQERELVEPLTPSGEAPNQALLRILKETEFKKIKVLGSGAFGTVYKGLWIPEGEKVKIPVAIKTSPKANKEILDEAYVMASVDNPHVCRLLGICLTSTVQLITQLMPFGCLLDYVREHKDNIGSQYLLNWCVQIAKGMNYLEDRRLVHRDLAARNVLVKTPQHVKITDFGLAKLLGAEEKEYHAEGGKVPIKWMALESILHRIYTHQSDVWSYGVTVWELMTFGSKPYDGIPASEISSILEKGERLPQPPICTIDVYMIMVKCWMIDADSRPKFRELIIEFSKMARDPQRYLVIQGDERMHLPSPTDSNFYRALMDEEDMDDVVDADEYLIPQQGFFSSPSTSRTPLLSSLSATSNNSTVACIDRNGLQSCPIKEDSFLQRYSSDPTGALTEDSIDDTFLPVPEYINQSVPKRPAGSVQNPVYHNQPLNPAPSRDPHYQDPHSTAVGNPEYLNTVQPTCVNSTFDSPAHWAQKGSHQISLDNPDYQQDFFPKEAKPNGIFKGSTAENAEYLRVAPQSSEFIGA
# BTK, sequence (Q06187 whole entry): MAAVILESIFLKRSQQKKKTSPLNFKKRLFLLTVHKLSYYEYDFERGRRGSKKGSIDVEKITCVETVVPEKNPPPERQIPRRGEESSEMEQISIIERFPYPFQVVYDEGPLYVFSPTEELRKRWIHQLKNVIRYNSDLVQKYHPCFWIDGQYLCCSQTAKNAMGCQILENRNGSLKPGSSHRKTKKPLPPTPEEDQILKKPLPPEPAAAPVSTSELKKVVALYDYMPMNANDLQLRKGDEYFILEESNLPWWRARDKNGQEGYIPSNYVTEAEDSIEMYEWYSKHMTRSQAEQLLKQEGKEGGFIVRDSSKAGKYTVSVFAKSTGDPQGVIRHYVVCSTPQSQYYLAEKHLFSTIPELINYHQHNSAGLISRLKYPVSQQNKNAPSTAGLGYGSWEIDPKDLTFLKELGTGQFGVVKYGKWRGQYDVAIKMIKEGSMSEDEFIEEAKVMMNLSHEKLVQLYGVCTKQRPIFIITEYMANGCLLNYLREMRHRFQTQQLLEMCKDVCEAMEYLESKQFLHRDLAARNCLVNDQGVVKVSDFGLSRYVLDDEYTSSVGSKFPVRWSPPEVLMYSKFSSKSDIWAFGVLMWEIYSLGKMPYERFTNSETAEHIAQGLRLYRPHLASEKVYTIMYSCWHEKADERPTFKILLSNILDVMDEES
inhibition at 0.1 µM (EGFR del746_750),inhibition at 0.1 µM (EGFR (ErbB1) L858R),inhibition at 0.1 µM (EGFR (ErbB1) T790M),inhibition at 0.1 µM (EGFR (ErbB1) L858R/T790M),inhibition at 0.1 µM (BTK),IC50 (BTK),IC50 (OCI-Ly10 cells),SMILES
< 50%,< 50%,< 50%,< 50%,< 50%,,,"C=CC(=O)N1CCCC(c2cc(-c3ccc(C)nc3)cc3cnc(N)nc23)C1 (stereo not drawn) [C042, 1-(3-(2-amino-6-(6-methylpyridin-3-yl)quinazolin-8-yl)piperidin-1-yl)prop-2-en-1-one]"
> 50%,> 50%,< 50%,< 50%,> 50%,< 100 nM,,"C=CC(=O)Nc1cccc(-c2cc(-c3ccccc3Cl)cc3cncnc23)c1 [C013, N-(3-(6-(2-chlorophenyl)quinazolin-8-yl)phenyl)acrylamide]"
> 50%,> 50%,< 50%,< 50%,> 50%,< 100 nM,,"C=CC(=O)Nc1cccc(-c2cc(-c3ccccc3Cl)cc3cnc(N)nc23)c1 [C003, N-(3-(2-amino-6-(2-chlorophenyl)quinazolin-8-yl)phenyl)acrylamide]"
> 50%,> 50%,< 50%,< 50%,> 50%,< 100 nM,,"C=CC(=O)Nc1cccc(-c2cc(-c3cccnc3)cc3cnc(Nc4ccccc4)nc23)c1 [C076, N-(3-(2-(phenylamino)-6-(pyridin-3-yl)quinazolin-8-yl)phenyl)acrylamide]"
,< 50%,< 50%,< 50%,> 50%,< 100 nM,,"C=CC(=O)N1CCC(c2cc(-c3ccc(C(=O)Nc4cc(Cl)ccn4)cc3)n3cnccc23)C1 (stereo not drawn) [C064, 4-(5-(1-acryloylpyrrolidin-3-yl)pyrrolo[1,2-c]pyrimidin-7-yl)-N-(4-chloropyridin-2-yl)benzamide]"
> 50%,> 50%,< 50%,< 50%,> 50%,< 100 nM,,"C=CC(=O)Nc1cccc(-c2cc(-c3cccc(F)c3)cc3cncnc23)c1 [C073, N-(3-(6-(3-fluorophenyl)quinazolin-8-yl)phenyl)acrylamide]"

# Further lines, the compound ahead of its results:
SMILES,inhibition at 0.1 µM (EGFR del746_750),inhibition at 0.1 µM (EGFR (ErbB1) L858R),inhibition at 0.1 µM (EGFR (ErbB1) T790M),inhibition at 0.1 µM (EGFR (ErbB1) L858R/T790M),inhibition at 0.1 µM (BTK),IC50 (BTK),IC50 (OCI-Ly10 cells)
"C=CC(=O)Nc1cccc(-c2cc(-c3ccc(C(=O)Nc4cccc(C(F)(F)F)c4)cc3)cc3cncnc23)c1 [C051, 4-(8-(3-acrylamidophenyl)quinazolin-6-yl)-N-(3-(trifluoromethyl)phenyl)benzamide]",> 50%,> 50%,> 50%,> 50%,> 50%,< 100 nM,
"C=CC(=O)Nc1cccc(-c2cc(-c3ccc(C(=O)Nc4ccccn4)cc3Cl)cc3cncnc23)c1 [C052, 4-(8-(3-acrylamidophenyl)quinazolin-6-yl)-3-chloro-N-(pyridin-2-yl)benzamide]",< 50%,< 50%,< 50%,< 50%,> 50%,< 100 nM,< 50 nM
"C=CC(=O)Nc1cccc(-c2cc(-c3ccccc3)cc3cnc(Nc4ccccc4)nc23)c1 [C074, N-(3-(6-phenyl-2-(phenylamino)quinazolin-8-yl)phenyl)acrylamide]",> 50%,> 50%,< 50%,< 50%,> 50%,< 100 nM,
"C=CC(=O)Nc1cccc(-c2cc(-c3ccc(C(=O)Nc4ccccn4)cc3)cc3cncnc23)c1 [C008, 4-(8-(3-acrylamidophenyl)quinazolin-6-yl)-N-(pyridin-2-yl)benzamide]",< 50%,< 50%,< 50%,< 50%,> 50%,< 100 nM,< 50 nM
